Legend:
Assay in all cases: relative viability (nuclei count vs DMSO), 5 days (fraction); higher = more cells survive
[1] = compound: CC1=NN=C(O1)C2=NN=C(C=C2)N3CCC(CC3)OC4=C(C=CC(=C4)F)Cl + Cc1cc(Nc2cc(N3CCN(C)CC3)nc(Sc3ccc(NC(=O)C4CC4)cc3)n2)n[nH]1 [Tozasertib] (partner 0.1 µM)
Summary of the method: (§1)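 Lung cancer cell lines in 1536-well plates were dosed by pin tool the day after seeding, either with one drug alone or with a fixed anchor-drug dose plus five library-drug doses (not always all listed) in √10 steps. After 5 days, cells were fixed and their nuclei stained in one step (final 0.05% Triton X-100, 1% formaldehyde, 1 ug/ml Hoechst), then counted on 4× images. Relative viability is the nuclei count in treated wells divided by that in vehicle wells. Values are medians of duplicate plates.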

[2] = compound: CC1=NN=C(O1)C2=NN=C(C=C2)N3CCC(CC3)OC4=C(C=CC(=C4)F)Cl + CCNC(=O)c1noc(-c2cc(C(C)C)c(O)cc2O)c1-c1ccc(CN2CCOCC2)cc1 [Luminespib] (partner 0.01 µM)
Summary of the method: as §1

[3] = compound: CC(C)C[C@@H](C(=O)N[C@H](C(=O)OC1CCCC1)c1ccccc1)[C@H](O)C(=O)NO [Tosedostat] + O=C(CCCCCCC(=O)Nc1ccccc1)NO [Vorinostat] (partner 1 µM)
Summary of the method: as §1

[4] = compound: CC1=NN=C(O1)C2=NN=C(C=C2)N3CCC(CC3)OC4=C(C=CC(=C4)F)Cl + O=C(c1cc(Cc2n[nH]c(=O)c3ccccc23)ccc1F)N1CCN(C(=O)C2CC2)CC1 [Olaparib] (partner 8 µM)
Summary of the method: as §1

NCI-H596
relative viability ([1]; first compound 0.253 µM): 0.966
relative viability ([1]; first compound 0.8 µM): 0.716
relative viability ([1]; first compound 2.53 µM): 0.862
relative viability ([1]; first compound 8 µM): 0.826
relative viability ([2]; first compound 0.253 µM): 0.938
relative viability ([2]; first compound 0.8 µM): 0.849
relative viability ([2]; first compound 2.53 µM): 0.945
relative viability ([2]; first compound 8 µM): 0.889
relative viability ([3]; first compound 0.02 µM): 0.731
relative viability ([3]; first compound 0.06325 µM): 0.706
relative viability ([3]; first compound 0.2 µM): 0.816
relative viability ([3]; first compound 0.6325 µM): 0.692
relative viability ([3]; first compound 2 µM): 0.616
relative viability ([4]; first compound 0.253 µM): 0.541
relative viability ([4]; first compound 0.8 µM): 0.732
relative viability ([4]; first compound 2.53 µM): 0.752
relative viability ([4]; first compound 8 µM): 0.615

RERF-LC-KJ
relative viability ([1]; first compound 0.253 µM): 0.341
relative viability ([1]; first compound 0.8 µM): 0.351
relative viability ([1]; first compound 2.53 µM): 0.367
relative viability ([1]; first compound 8 µM): 0.322
relative viability ([2]; first compound 0.253 µM): 0.75
relative viability ([2]; first compound 0.8 µM): 0.647
relative viability ([2]; first compound 2.53 µM): 0.612
relative viability ([2]; first compound 8 µM): 0.673
relative viability ([3]; first compound 0.02 µM): 0.692
relative viability ([3]; first compound 0.06325 µM): 0.676
relative viability ([3]; first compound 0.2 µM): 0.604
relative viability ([3]; first compound 0.6325 µM): 0.681
relative viability ([3]; first compound 2 µM): 0.619
relative viability ([4]; first compound 0.253 µM): 0.377
relative viability ([4]; first compound 0.8 µM): 0.536
relative viability ([4]; first compound 2.53 µM): 0.553
relative viability ([4]; first compound 8 µM): 0.529

LOU-NH91
relative viability ([1]; first compound 0.253 µM): 0.585
relative viability ([1]; first compound 0.8 µM): 0.587
relative viability ([1]; first compound 2.53 µM): 0.664
relative viability ([1]; first compound 8 µM): 0.677
relative viability ([2]; first compound 0.253 µM): 0.317
relative viability ([2]; first compound 0.8 µM): 0.318
relative viability ([2]; first compound 2.53 µM): 0.307
relative viability ([2]; first compound 8 µM): 0.315
relative viability ([3]; first compound 0.02 µM): 0.983
relative viability ([3]; first compound 0.06325 µM): 0.932
relative viability ([3]; first compound 0.2 µM): 0.898
relative viability ([3]; first compound 0.6325 µM): 0.764
relative viability ([3]; first compound 2 µM): 0.693
relative viability ([4]; first compound 0.8 µM): 0.818
relative viability ([4]; first compound 2.53 µM): 0.879
relative viability ([4]; first compound 8 µM): 0.883

NCI-H1623
relative viability ([1]; first compound 0.253 µM): 0.322
relative viability ([1]; first compound 0.8 µM): 0.435
relative viability ([1]; first compound 2.53 µM): 0.372
relative viability ([1]; first compound 8 µM): 0.385
relative viability ([2]; first compound 0.253 µM): 0.465
relative viability ([2]; first compound 0.8 µM): 0.52
relative viability ([2]; first compound 2.53 µM): 0.486
relative viability ([2]; first compound 8 µM): 0.433

Calu-6
relative viability ([4]; first compound 0.253 µM): 0.381
relative viability ([4]; first compound 0.8 µM): 0.389
relative viability ([4]; first compound 2.53 µM): 0.385
relative viability ([4]; first compound 8 µM): 0.384

LC-2-ad
relative viability ([1]; first compound 0.253 µM): 0.38
relative viability ([1]; first compound 0.8 µM): 0.354
relative viability ([1]; first compound 2.53 µM): 0.359
relative viability ([1]; first compound 8 µM): 0.344
relative viability ([2]; first compound 0.253 µM): 0.567
relative viability ([2]; first compound 0.8 µM): 0.488
relative viability ([2]; first compound 2.53 µM): 0.544
relative viability ([2]; first compound 8 µM): 0.483
relative viability ([3]; first compound 0.02 µM): 0.835
relative viability ([3]; first compound 0.06325 µM): 0.702
relative viability ([3]; first compound 0.2 µM): 0.7
relative viability ([3]; first compound 0.6325 µM): 0.688
relative viability ([3]; first compound 2 µM): 0.512
relative viability ([4]; first compound 0.253 µM): 0.297
relative viability ([4]; first compound 0.8 µM): 0.257
relative viability ([4]; first compound 2.53 µM): 0.255
relative viability ([4]; first compound 8 µM): 0.238

CAL-12T
relative viability ([1]; first compound 0.253 µM): 0.26
relative viability ([1]; first compound 0.8 µM): 0.241
relative viability ([1]; first compound 2.53 µM): 0.227
relative viability ([1]; first compound 8 µM): 0.216
relative viability ([2]; first compound 0.253 µM): 0.362
relative viability ([2]; first compound 0.8 µM): 0.342
relative viability ([2]; first compound 2.53 µM): 0.501
relative viability ([2]; first compound 8 µM): 0.415
relative viability ([3]; first compound 0.02 µM): 1.05
relative viability ([3]; first compound 0.06325 µM): 0.678
relative viability ([3]; first compound 0.2 µM): 0.656
relative viability ([3]; first compound 0.6325 µM): 0.572
relative viability ([3]; first compound 2 µM): 0.685
relative viability ([4]; first compound 0.253 µM): 0.639
relative viability ([4]; first compound 0.8 µM): 0.68
relative viability ([4]; first compound 2.53 µM): 0.651
relative viability ([4]; first compound 8 µM): 0.644

NCI-H1650
relative viability ([1]; first compound 0.8 µM): 0.357
relative viability ([1]; first compound 2.53 µM): 0.361
relative viability ([1]; first compound 8 µM): 0.235
relative viability ([2]; first compound 0.8 µM): 0.194
relative viability ([2]; first compound 2.53 µM): 0.217
relative viability ([2]; first compound 8 µM): 0.205
relative viability ([3]; first compound 0.02 µM): 0.51
relative viability ([3]; first compound 0.06325 µM): 0.641
relative viability ([3]; first compound 0.2 µM): 0.735
relative viability ([3]; first compound 0.6325 µM): 0.841
relative viability ([3]; first compound 2 µM): 0.704
relative viability ([4]; first compound 0.253 µM): 0.516
relative viability ([4]; first compound 0.8 µM): 0.645
relative viability ([4]; first compound 2.53 µM): 0.642
relative viability ([4]; first compound 8 µM): 0.597

NCI-H1703
relative viability ([4]; first compound 0.253 µM): 0.341
relative viability ([4]; first compound 0.8 µM): 0.438
relative viability ([4]; first compound 2.53 µM): 0.448
relative viability ([4]; first compound 8 µM): 0.609

BEN
relative viability ([1]; first compound 0.253 µM): 0.505
relative viability ([1]; first compound 0.8 µM): 0.423
relative viability ([1]; first compound 2.53 µM): 0.454
relative viability ([1]; first compound 8 µM): 0.46
relative viability ([2]; first compound 0.253 µM): 0.47
relative viability ([2]; first compound 0.8 µM): 0.459
relative viability ([2]; first compound 2.53 µM): 0.312
relative viability ([2]; first compound 8 µM): 0.18
relative viability ([3]; first compound 0.02 µM): 0.645
relative viability ([3]; first compound 0.06325 µM): 0.602
relative viability ([3]; first compound 0.2 µM): 0.678
relative viability ([3]; first compound 0.6325 µM): 0.761
relative viability ([3]; first compound 2 µM): 0.888
relative viability ([4]; first compound 0.253 µM): 1.2
relative viability ([4]; first compound 0.8 µM): 0.767
relative viability ([4]; first compound 2.53 µM): 0.966
relative viability ([4]; first compound 8 µM): 1.07

EMC-BAC-2
relative viability ([1]; first compound 0.253 µM): 0.314
relative viability ([1]; first compound 0.8 µM): 0.274
relative viability ([1]; first compound 2.53 µM): 0.283
relative viability ([1]; first compound 8 µM): 0.284
relative viability ([2]; first compound 0.253 µM): 0.987
relative viability ([2]; first compound 0.8 µM): 0.977
relative viability ([2]; first compound 2.53 µM): 1.03
relative viability ([2]; first compound 8 µM): 0.917
relative viability ([3]; first compound 0.02 µM): 0.605
relative viability ([3]; first compound 0.06325 µM): 0.713
relative viability ([3]; first compound 0.2 µM): 0.471
relative viability ([3]; first compound 0.6325 µM): 0.408
relative viability ([3]; first compound 2 µM): 0.323
relative viability ([4]; first compound 0.253 µM): 0.376
relative viability ([4]; first compound 0.8 µM): 0.414
relative viability ([4]; first compound 2.53 µM): 0.457
relative viability ([4]; first compound 8 µM): 0.441
